Data reported in DBAASP.
Converted amounts (≈) assume the structure as drawn. “And” between values parts separate entries of the source, which are not always exact repeats. Equal values may be shown once. Each block holds one compound with its values, some of them ahead of it.

Tests used:
Assay in all cases: ≥ marks a high value that may be exact or a test limit, other limits are often not marked, values filed in µg/mL are converted to µM
Bacillus subtilis = tested on: Bacillus subtilis
Escherichia coli = tested on: Escherichia coli
Klebsiella pneumoniae = tested on: Klebsiella pneumoniae
Micrococcus luteus = tested on: Micrococcus luteus
Proteus mirabilis = tested on: Proteus mirabilis
Pseudomonas aeruginosa = tested on: Pseudomonas aeruginosa
Salmonella typhimurium = tested on: Salmonella typhimurium
Shigella dysenteriae = tested on: Shigella dysenteriae
Staphylococcus aureus = tested on: Staphylococcus aureus
[1] = tested on: Staphylococcus epidermidis
[2] = tested on: Staphylococcus aureus USA 100
[3] = tested on: Candida albicans NCPF 1467
[4] = tested on: Escherichia coli NCTC 10418
[5] = tested on: Staphylococcus aureus NCTC 10788
[6] = tested on: Bacillus subtilis CMCC 63501
[7] = tested on: Escherichia coli ATCC 25922
Escherichia coli UB1005 = tested on: Escherichia coli UB1005
[8] = tested on: Pseudomonas aeruginosa ATCC 27853
[9] = tested on: Salmonella enterica subsp. enterica serovar Typhimurium ATCC 14028
[10] = tested on: Salmonella typhimurium ATCC 7731
[11] = tested on: Staphylococcus aureus ATCC 29213
[12] = tested on: Staphylococcus epidermidis ATCC 12228
[13] = tested on: Clavibacter michiganensis subsp. michiganensis DSM 46294
[14] = tested on: Pectobacterium carotovorum subsp. carotovorum DSM 30168
[15] = tested on: Pseudomonas corrugata DSM 7228
[16] = tested on: Pseudomonas syringae pv. syringae DSM 10604
[17] = tested on: Pseudomonas syringae pv. tomato DC3000
[18] = tested on: Xanthomonas vesicatoria DSM 50861
[19] = tested on: Salmonella enterica subsp. enterica serovar Pullorum C79-13
[20] = tested on: Staphylococcus aureus ATCC 43300

- MIC [2]: ≥ 100 µM
SMILES: NC(=O)[C@H](CCCN=C(N)N)NC(=O)[C@H](CC(=O)O)NC(=O)[C@H](CCCN=C(N)N)NC(=O)[C@@H](N)CC(=O)O [DRDR]

- MIC (Bacillus subtilis): 16.8 µM (≈ 25 µg/mL)
- MIC (Escherichia coli): 33.6 µM (≈ 50 µg/mL)
- MIC (Klebsiella pneumoniae): 67.1 µM (≈ 100 µg/mL)
- MIC (Micrococcus luteus): 4.23 µM (≈ 6.3 µg/mL)
- MIC (Proteus mirabilis): ≥ 134 µM
- MIC (Pseudomonas aeruginosa): > 134 µM
- MIC (Salmonella typhimurium): ≥ 134 µM
- MIC (Shigella dysenteriae): ≥ 33.6 µM
- MIC (Staphylococcus aureus): 2.08 µM (≈ 3.1 µg/mL)
- MIC [1]: 2.08 µM (≈ 3.1 µg/mL)
SMILES: CC(C)C[C@H](NC(=O)[C@@H](NC(=O)[C@H](CCCCN)NC(=O)[C@H](CC(C)C)NC(=O)[C@H](C)NC(=O)[C@@H](NC(=O)[C@H](CCCCN)NC(=O)[C@H](Cc1ccccc1)NC(=O)[C@H](CC(C)C)NC(=O)[C@H](C)NC(=O)[C@H](CCCCN)NC(=O)[C@H](CC(C)C)NC(=O)[C@@H](N)Cc1ccccc1)C(C)C)C(C)C)C(=O)O [FLKALFKVALKVL]

- MIC [3]: 12.2 µM (≈ 32 µg/mL)
- MIC [4]: 12.2 µM (≈ 32 µg/mL)
- MIC [5]: 3.05 µM (≈ 8 µg/mL)
SMILES: CC[C@H](C)[C@H](NC(=O)CN)C(=O)NCC(=O)NCC(=O)N[C@@H](C)C(=O)N[C@@H](CC(C)C)C(=O)N[C@@H](CC(C)C)C(=O)N[C@@H](CC(N)=O)C(=O)N[C@H](C(=O)NCC(=O)N[C@@H](CCCCN)C(=O)N[C@H](C(=O)N[C@@H](C)C(=O)N[C@@H](CC(C)C)C(=O)N[C@@H](CCCCN)C(=O)NCC(=O)N[C@@H](CC(C)C)C(=O)N[C@@H](C)C(=O)N[C@@H](CCCCN)C(=O)NCC(=O)N[C@@H](CC(C)C)C(=O)N[C@@H](C)C(=O)N[C@@H](CCC(=O)O)C(=O)N[C@@H](Cc1cnc[nH]1)C(=O)N[C@@H](Cc1ccccc1)C(=O)N[C@@H](C)C(=O)N[C@@H](CC(N)=O)C(N)=O)C(C)C)C(C)C [GIGGALLNVGKVALKGLAKGLAEHFAN]

- MIC [6]: 2 µM (≈ 6.19 µg/mL)
- MIC [7]: 2 µM and 4 µM
- MIC (Escherichia coli UB1005): 4 µM (≈ 12.4 µg/mL)
- MIC [8]: 4 µM and > 2 µM
- MIC [9]: 4 µM (≈ 12.4 µg/mL)
- MIC [10]: 4 µM (≈ 12.4 µg/mL)
- MIC [11]: 4 µM (≈ 12.4 µg/mL)
- MIC [12]: 2 µM (≈ 6.19 µg/mL)
SMILES: CC[C@H](C)[C@H](NC(=O)CNC(=O)[C@H](C)NC(=O)[C@H](C)NC(=O)[C@@H](NC(=O)[C@@H](NC(=O)[C@H](CC(N)=O)NC(=O)[C@@H](NC(=O)[C@H](C)NC(=O)[C@@H](NC(=O)[C@@H]1CCCN1C(=O)[C@@H](NC(=O)[C@H](CC(C)C)NC(=O)[C@@H]1CCCN1C(=O)[C@H](Cc1c[nH]c2ccccc12)NC(=O)[C@H](Cc1ccccc1)NC(=O)[C@H](CCCN=C(N)N)NC(=O)[C@@H](N)CCCCN)C(C)C)C(C)C)[C@@H](C)CC)[C@@H](C)O)C(C)C)C(=O)N[C@@H](CC(N)=O)C(=O)N[C@@H](CC(C)C)C(=O)N[C@@H](Cc1ccc(O)cc1)C(=O)N[C@@H](CCCCN)C(=O)N[C@@H](C)C(=O)N[C@H](C(=O)N[C@@H](CCCN=C(N)N)C(=O)N[C@@H](CCCN=C(N)N)C(=O)N[C@@H](CCCCN)C(N)=O)[C@@H](C)CC [KRFWPLVPVAINTVAAGINLYKAIRRK]

- MIC [13]: 3.16 µM (≈ 5 µg/mL)
- MIC [14]: 6.33 µM (≈ 9.99 µg/mL)
- MIC [15]: 0.316 µM (≈ 0.5 µg/mL)
- MIC [16]: 0.158 µM (≈ 0.25 µg/mL)
- MIC [17]: 6.33 µM (≈ 9.99 µg/mL)
- MIC [18]: 6.33 µM (≈ 9.99 µg/mL)
SMILES: CC[C@H](C)[C@H](NC(=O)[C@H](CC(C)C)NC(=O)[C@H](CCCN=C(N)N)NC(=O)[C@H](CCCCN)NC(=O)[C@H](CC(C)C)NC(=O)[C@H](CC(C)C)NC(=O)[C@H](CCCCN)NC(=O)[C@H](CCCCN)NC(=O)[C@H](CCCN=C(N)N)NC(=O)[C@H](CCCCN)NC(=O)[C@H](CCCCN)NC(=O)[C@@H](N)CCCN=C(N)N)C(N)=O [RKKRKKLLKRLI]

- MIC [6]: ≥ 128 µM
- MIC [7]: > 128 µM
- MIC (Escherichia coli UB1005): ≥ 128 µM
- MIC [8]: > 128 µM
- MIC [19]: ≥ 128 µM
- MIC [10]: ≥ 128 µM
- MIC [11]: > 128 µM
- MIC [20]: > 128 µM
- MIC [12]: > 128 µM
SMILES: CC(C)C[C@H](NC(=O)[C@H](CCCCN)NC(=O)[C@H](CCCCN)NC(=O)[C@H](C)NC(=O)[C@@H](NC(=O)[C@H](CCCCN)NC(=O)[C@H](CO)NC(=O)[C@H](CC(C)C)NC(=O)[C@@H](N)Cc1c[nH]c2ccccc12)[C@@H](C)O)C(N)=O [WLSKTAKKL]

Continued, compound first:

SMILES: CC(C)C[C@H](NC(=O)[C@H](C)N)C(=O)N[C@@H](Cc1ccccc1)C(=O)N[C@@H](CCCCN)C(=O)N[C@H](C(=O)N[C@@H](C)C(=O)N[C@@H](CO)C(=O)N[C@@H](CCCCN)C(=O)N[C@H](C(=O)N[C@@H](CC(C)C)C(=O)N1CCC[C@H]1C(=O)N[C@@H](CO)C(=O)N[C@H](C(=O)O)C(C)C)C(C)C)C(C)C [ALFKVASKVLPSV]
- MIC (Bacillus subtilis): ≥ 147 µM
- MIC (Escherichia coli): > 147 µM
- MIC (Klebsiella pneumoniae): > 147 µM
- MIC (Micrococcus luteus): ≥ 147 µM
- MIC (Proteus mirabilis): ≥ 147 µM
- MIC (Pseudomonas aeruginosa): > 147 µM
- MIC (Salmonella typhimurium): ≥ 147 µM
- MIC (Shigella dysenteriae): ≥ 147 µM
- MIC (Staphylococcus aureus): > 147 µM
- MIC [1]: ≥ 147 µM

SMILES: CC[C@H](C)[C@H](NC(=O)[C@H](C)NC(=O)[C@H](CCCCN)NC(=O)[C@@H]1CCCN1C(=O)[C@@H](NC(=O)[C@H](CC(C)C)NC(=O)[C@H](CCCCN)NC(=O)[C@H](Cc1ccccc1)NC(=O)[C@H](CC(C)C)NC(=O)[C@@H](N)Cc1ccccc1)[C@@H](C)CC)C(=O)N[C@@H](CCCCN)C(=O)NCC(=O)N[C@@H](CC(C)C)C(=O)N[C@H](C(=O)N[C@@H](CCCCN)C(=O)N[C@@H](C)C(=O)N[C@@H](Cc1ccccc1)C(=O)N[C@H](C=O)CCCCN)[C@@H](C)CC [FLFKLIPKAIKGLIKAFK]
- MIC [3]: 4 µM (≈ 8.24 µg/mL)
- MIC [4]: 8 µM (≈ 16.5 µg/mL)
- MIC [5]: 4 µM (≈ 8.24 µg/mL)

SMILES: CC[C@H](C)[C@H](NC(=O)[C@H](C)NC(=O)[C@H](CCCCN)NC(=O)[C@@H](NC(=O)[C@H](CC(C)C)NC(=O)CNC(=O)[C@H](CCCCN)NC(=O)[C@@H](NC(=O)[C@@H](NC(=O)[C@H](CCCCN)NC(=O)[C@@H]1CCCN1C(=O)[C@@H](NC(=O)[C@H](CC(C)C)NC(=O)[C@H](CCCCN)NC(=O)[C@H](Cc1ccccc1)NC(=O)[C@H](CC(C)C)NC(=O)[C@@H](N)Cc1ccccc1)[C@@H](C)CC)C(C)C)[C@@H](C)CC)C(C)C)C(=O)N[C@@H](CCCN=C(N)N)C(=O)N[C@@H](CCCCN)C(N)=O [FLFKLIPKVIKGLVKAIRK]
- MIC [3]: 1.81 µM (≈ 4 µg/mL)
- MIC [4]: 7.23 µM (≈ 16 µg/mL)
- MIC [5]: 1.81 µM (≈ 4 µg/mL)

SMILES: NC(=O)[C@H](CCCN=C(N)N)NC(=O)[C@H](Cc1ccccc1)NC(=O)[C@H](CCCN=C(N)N)NC(=O)[C@@H](N)Cc1ccccc1 [FRFR]
- MIC [2]: ≥ 100 µM

SMILES: CC[C@H](C)[C@H](NC(=O)[C@H](CO)NC(=O)[C@H](CC(N)=O)NC(=O)[C@@H](NC(=O)[C@H](CC(C)C)NC(=O)[C@H](C)NC(=O)[C@H](CO)NC(=O)[C@H](C)NC(=O)[C@H](Cc1ccccc1)NC(=O)[C@H](CC(=O)O)NC(=O)[C@H](CCCCN)NC(=O)[C@H](C)NC(=O)CNC(=O)[C@H](CCCCN)NC(=O)[C@H](CCCCN)NC(=O)[C@H](CC(C)C)NC(=O)[C@H](CCCCN)NC(=O)[C@H](CCC(=O)O)NC(=O)[C@H](CC(C)C)NC(=O)[C@H](Cc1ccccc1)NC(=O)CN)C(C)C)C(=O)N[C@@H](CCCCN)C(=O)NCC(=O)N[C@H](C(=O)O)[C@@H](C)O [GFLEKLKKGAKDFASALVNSIKGT]
- MIC [3]: ≥ 101 µM
- MIC [4]: ≥ 50.7 µM
- MIC [5]: ≥ 203 µM

SMILES: NCCCC[C@H](NC(=O)[C@H](Cc1c[nH]c2ccccc12)NC(=O)[C@H](CCCCN)NC(=O)[C@@H](N)Cc1c[nH]c2ccccc12)C(N)=O [WKWK]
- MIC [2]: ≥ 100 µM
